# Laboratory results taken from patent publication US10370343B2, “[6,6] Fused bicyclic HDAC8 inhibitors” (FORMA Therapeutics, Inc., priority 2015, dated 2019).
# Counter-ions that a name gives are not always drawn.
# Biological target: T1, Full length human recombinant HDAC8 protein (Homo sapiens, UniProt Q9BY41)
# T1 construct: Full length human recombinant HDAC8 protein was expressed in baculoviral system; made in house
# T1 sequence (Q9BY41 1-377): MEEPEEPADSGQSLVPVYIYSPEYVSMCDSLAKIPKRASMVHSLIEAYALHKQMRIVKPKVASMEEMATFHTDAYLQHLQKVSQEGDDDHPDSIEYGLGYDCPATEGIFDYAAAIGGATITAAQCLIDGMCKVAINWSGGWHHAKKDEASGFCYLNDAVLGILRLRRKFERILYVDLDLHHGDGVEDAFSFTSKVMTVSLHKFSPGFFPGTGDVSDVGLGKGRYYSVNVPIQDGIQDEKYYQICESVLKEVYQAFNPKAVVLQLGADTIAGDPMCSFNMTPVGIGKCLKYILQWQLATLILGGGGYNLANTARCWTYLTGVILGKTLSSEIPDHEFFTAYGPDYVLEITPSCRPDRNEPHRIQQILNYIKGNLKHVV
# Test: In vitro histone deacetylase assay: enzymatic HDAC8 electrophoretic mobility shift assay
# Assay type: biochemical
# Settings: electrophoretic mobility shift assay; enzyme 1 nM; 2 μM fluorescently labeled peptide substrate RHKK(Ac)-NH2; 25° C.; 12 concentrations; read-out: HDAC8 IC50
# Experimental: The enzymatic HDAC8 assay was performed using electrophoretic mobility shift assay. Full length human recombinant HDAC8 protein was expressed in baculoviral system and purified by affinity chromatography. The enzymatic reactions were assembled in 384 well plates in a total volume of 25 μL in a reaction buffer composing: 100 mM HEPES, pH7.5, 25 mM KCl, 0.1% bovine serum albumin, 0.01% Triton X-100, 1% DMSO (from compounds) 2 μM of the fluorescently labeled peptide substrate and enzyme. The enzyme was added at a final concentration of 1 nM. The peptide substrate RHKK(Ac)—NH2 was used. The compounds were tested at 12 concentrations spaced by 3× dilution intervals. Negative control samples (0%-inhibition in the absence of inhibitor) and positive control samples (100%-inhibition) were assembled in replicates of four in each assay plate. The reactions were incubated at 25° C. and quenched by the addition of 45 μL of termination buffer (100 mM HEPES, pH 7.5, 0.01% Triton X-100, 0.05% SDS).
# The terminated assay plates were analyzed on LabChip® 3000 microfluidic electrophoresis instrument (Perkin Elmer/Caliper Life Sciences). The fluorescence intensity of the electrophoretically separated de-acetylated product and substrate peptide was measured. Activity in each sample was determined as the product to sum ratio (PSR): P/(S+P), where P is the peak height of the product peptide and S is the peak height of the substrate peptide. Percent inhibition (Pinh) is determined using the following equation: Pinh=(PSR0%−PSRinh)/(PSR0%−PSR100%)*100, where PSRinh is the product sum ratio in the presence of inhibitor, PSR0% is the average product sum ration in the absence of inhibitor and PSR100% is the average product sum ratio in 100%-inhibition control samples. The IC50 values of inhibitors were determined by fitting the %-inhibition curves with 4 parameter dose-response model using XLfit 4 software.
row,IC50,Compound
1,100 to 1000 nM,"O=C(NO)c1ccc2c(c1)N(Cc1nc3ccccc3n1CC1CC1)C(=O)CO2 [Compound I-279, 4-((1-(cyclopropylmethyl)-1H-benzo[d]imidazol-2-yl)methyl)-N-hydroxy-3-oxo-3,4-dihydro-2H-benzo[b][1,4]oxazine-6-carboxamide]"
2,> 1000 nM,"COCCn1c(N2CCCc3c(C(=O)NO)cccc32)nc2ccccc21 [Compound I-13, N-hydroxy-1-(1-(2-methoxyethyl)-1H-benzo[d]imidazol-2-yl)-1,2,3,4-tetrahydroquinoline-5-carboxamide]"
3,< 25 nM,"O=C(NO)c1ccc2c(c1)N(Cc1cccc(OC(F)(F)F)c1)C(=O)CO2 [Compound I-146, N-hydroxy-3-oxo-4-(3-(trifluoromethoxy)benzyl)-3,4-dihydro-2H-benzo[b][1,4]oxazine-6-carboxamide]"
4,25 to 100 nM,"COc1ccc(CN2CCOc3ccc(C(=O)NO)cc32)cc1S(C)(=O)=O [Compound I-139, N-hydroxy-4-(4-methoxy-3-(methylsulfonyl)benzyl)-3,4-dihydro-2H-benzo[b][1,4]oxazine-6-carboxamide]"
5,100 to 1000 nM,"O=C(NO)c1ccc2c(c1)OC(C(=O)NC1CCOCC1)CN2Cc1ccccc1 (stereo not drawn) [Compound I-8, 4-benzyl-N^7-hydroxy-N^2-(tetrahydro-2H-pyran-4-yl)-3,4-dihydro-2H-benzo[b][1,4]oxazine-2,7-dicarboxamide]"
6,100 to 1000 nM,"CN1CC(C(=O)N2CC3(CC3)c3ccccc32)Oc2ccc(C(=O)NO)cc21 (stereo not drawn) [Compound I-3, N-hydroxy-4-methyl-2-(spiro[cyclopropane-l,3′-indoline]-1′-carbonyl)-3,4-dihydro-2H-benzo[b][1,4]oxazine-6-carboxamide hydrochloride]"
7,> 1000 nM,"O=C(NO)c1ccc2c(c1)OCCN2c1nc2ccccc2[nH]1 [Compound I-109, 4-(1H-benzo[d]imidazol-2-yl)-N-hydroxy-3,4-dihydro-2H-benzo[b][1,4]oxazine-7-carboxamide]"
8,100 to 1000 nM,"O=C(NO)c1ccc2c(c1)N(c1nc3ccccc3[nH]1)CCC2 [Compound I-106, 1-(1H-benzo[d]imidazol-2-yl)-N-hydroxy-1,2,3,4-tetrahydroquinoline-7-carboxamide]"
9,25 to 100 nM,"CS(=O)(=O)c1ccc(CN2CCOc3ccc(C(=O)NO)cc32)c(C(F)(F)F)c1 [Compound I-137, N-hydroxy-4-(4-(methylsulfonyl)-2-(trifluoromethyl)benzyl)-3,4-dihydro-2H-benzo[b][1,4]oxazine-6-carboxamide]"
10,100 to 1000 nM,"CC1Oc2cc(C(=O)NO)ccc2N(Cc2ccc(S(C)(=O)=O)cc2)C1=O (stereo not drawn) [Compound I-92, N-hydroxy-2-methyl-4-(4-(methylsulfonyl)benzyl)-3-oxo-3,4-dihydro-2H-benzo[b][1,4]oxazine-7-carboxamide]"

# Biological target: T2, Recombinant N-terminal GST tag full-length human HDAC8 (Homo sapiens, UniProt Q9BY41)
# T2 construct: Recombinant N-terminal GST tag full-length human HDAC8; purchased SignalChem H90-30G-1000; host or cells: baculovirus in Sf9 insect cells
# T2 sequence (Q9BY41 1-377): T1 sequence (Q9BY41 1-377)
# Test: HDAC8 probe binding assay, time resolved fluorescence (TRF) format
# Settings: compounds grouped by IC50 range (Table 2)
# How it was run: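 Probe-binding TRF assay using full-length N-GST human HDAC8 expressed in baculovirus-infected Sf9 cells, incubated 16 h at room temperature and read at 340 nm excitation, 485/535 nm emission. Percent inhibition was normalised to no-enzyme and DMSO controls. IC50 was obtained by 4-parameter logistic fit.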
row,IC50,Compound
1,25 to 100 nM,"COc1ccc(CN2CC(C(=O)N(C)C)Oc3ccc(C(=O)NO)cc32)cc1 (stereo not drawn) [Compound I-169, N6-hydroxy-4-(4-methoxybenzyl)-N2,N2-dimethyl-3,4-dihydro-2H-benzo[b][1,4]oxazine-2,6-dicarboxamide]"
2,≤ 25 nM,"N#Cc1cccc(CN2C(=O)COc3ccc(C(=O)NO)cc32)c1 [Compound I-236, 4-(3-cyanobenzyl)-N-hydroxy-3-oxo-3,4-dihydro-2H-benzo[b][1,4]oxazine-6-carboxamide]"
3,≤ 25 nM,"O=C(NO)c1ccc2c(c1)N(Cc1ccc3cccnc3c1)C(=O)CO2 [Compound I-335, N-hydroxy-3-oxo-4-(quinolin-ylmethyl)-3,4-dihydro-2H-benzo[b][1,4]oxazine-6-carboxamide]"
4,≤ 25 nM,"Cn1cc2cc(CN3C(=O)COc4ccc(C(=O)NO)cc43)ccc2n1 [Compound I-238, N-hydroxy-4-((2-methyl-2H-indazol-5-yl)methyl)-3-oxo-3,4-dihydro-2H-benzo[b][1,4]oxazine-6-carboxamide]"
5,≤ 25 nM,"O=C(NO)c1ccc2c(c1)N(Cc1nc3ccccc3s1)C(=O)CO2 [Compound I-289, 4-(benzo[d]thiazol-2-ylmethyl)-N-hydroxy-3-oxo-3,4-dihydro-2H-benzo[b][1,4]oxazine-6-carboxamide]"
